Assay results published in patent US12208112B2, “Composition for treating blood cancer using 4′-thio-5-Aza-2′-deoxycytidine and uses thereof” (Southern Research Institute, priority 2020, dated 2025).

Columns and labels:
[1] = cited from earlier work
in vivo [2] = settings: mouse, iv, 1 mg/kg
in vivo [3] = settings: rat, iv, 1 mg/kg
in vivo [4] = settings: dog, iv, 0.33 mg/kg
[5] = Animal PK, NCA parameters, rat; settings: in vivo
[6] = Animal PK, NCA parameters, dog; settings: in vivo
[7] = Animal PK, NCA parameters, mouse; settings: in vivo
normal mouse = experiment: Bone marrow toxicity after one-cycle PO administration to a normal mouse; assay type: in vivo
From the text: In the case of elderly patients who cannot receive bone marrow transplants, that is, the main targets of decitabine and azacytidine, toxicity in the bone marrow becomes the limit dose that determines a dose for administration, and, thus, the maximum dose that enables safe administration was to be determined.

Molm13 AML cells = experiment: Xenograft model with subcutaneously transplanted Molm13 AML cells; assay type: in vivo, mouse; settings: 1.5 or 2.5 mpk PO, one cycle
Mouse PK (AUC) = assay type: in vivo; settings: for AUC: in vivo, mouse
From the text: (§1) Without wishing to be bound by theory, this is excellent efficacy at a level that is impossible to reach by the same family of cytidine-based drugs such as decitabine or azacytidine, which was conventionally used, and according to conventional reports on Aza-T-dCyd, the level corresponds to a dose of a level expected to have toxicity.

[8] = Human PK parameter prediction by interspecies (allometric) scaling; settings: for F_human (equation result): in % (unit assumed)
From the text: PK parameters were scaled allometrically and used to extrapolate the PK in a 70 kg human. Details are described in the next section.
Simple allometric scaling, was used to predict CL, Vc, Vp, and Q. Y is PK parameter, BW is body weight, a is the allometric coefficient, and b is the allometric exponent. Final PK parameters, CL, Vc, Vp, and Q, were extrapolated based on the best-fit-lines (FIG. 8).
See Musther et al. (2014) European Journal of Pharmaceutical Sciences 57: 280-291.
For absorption rate constant (Ka) and bioavailability (F), animal parameters were used.

[9] = Absorption parameters over three species; assay type: in vivo, mice, rats, or dogs
From the text: Details are described in the next section. […] See also FIG. 3 and FIG. 7.
The human F calculated by the equation reported in literature was about 0.65 (from mouse), 0.59 (from rat), or 0.66 (from dog). See Musther et al. (2014) European Journal of Pharmaceutical Sciences 57: 280-291.

[10] = Simulation of human PK using decitabine PK parameters; settings: from animal parameters, used in human simulation
From the text: as §1

MV4-11 AML cells [11] = experiment: Xenograft AML model with subcutaneously transplanted MV4-11 AML cells, alone and in combination with Venetoclax; assay type: in vivo, mouse; settings: Aza-T-dCyd 2.0 mpk PO alone, Aza-T-dCyd 0.5 mpk with Venetoclax 50 mpk PO, Azacitidine 5.0 mpk IP alone
From the text: 5.0 mpk of Azacitidine alone; or 2.5 mpk of Azacitidine in combination of 50 mpk of Venetoclax were intraperitoneal (IP) administered as a control.

[12] = test system: blood cancer mouse models; experiment: Blood cancer mouse models (summary statement); assay type: in vivo; settings: 1.4 to 2.6 mpk PO for 5 days, 2-day break, 9-day break
[13] = test system: MDS orthotopic animal models; settings: reported in 2018; cited from earlier work
DNMT1 = DNMT1 (Homo sapiens, UniProt P26358); settings: background statement; cited from earlier work
cytidine deaminase = cytidine deaminase (Homo sapiens, UniProt P32320); settings: compared to conventional compounds with a 5-azacytidine backbone; cited from earlier work
MV4-11 AML cells [14] = experiment: Blood analysis (CBC sampling) in the systemic AML model; settings: blood samples collected in the AML model experiment
MV4-11 AML cells [15] = experiment: Systemic AML model, MV4-11 AML cells transplanted into the bone marrow (survival, clinical observations)
[16] = human decitabine parameter used in simulation

Chain of cytidine deaminase (P32320 whole entry, species assumed): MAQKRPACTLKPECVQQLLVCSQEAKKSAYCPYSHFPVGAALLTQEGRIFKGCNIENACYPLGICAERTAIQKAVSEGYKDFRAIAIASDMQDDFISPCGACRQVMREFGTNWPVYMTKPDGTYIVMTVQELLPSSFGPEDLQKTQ
Chain of DNMT1 (P26358 whole entry, species assumed): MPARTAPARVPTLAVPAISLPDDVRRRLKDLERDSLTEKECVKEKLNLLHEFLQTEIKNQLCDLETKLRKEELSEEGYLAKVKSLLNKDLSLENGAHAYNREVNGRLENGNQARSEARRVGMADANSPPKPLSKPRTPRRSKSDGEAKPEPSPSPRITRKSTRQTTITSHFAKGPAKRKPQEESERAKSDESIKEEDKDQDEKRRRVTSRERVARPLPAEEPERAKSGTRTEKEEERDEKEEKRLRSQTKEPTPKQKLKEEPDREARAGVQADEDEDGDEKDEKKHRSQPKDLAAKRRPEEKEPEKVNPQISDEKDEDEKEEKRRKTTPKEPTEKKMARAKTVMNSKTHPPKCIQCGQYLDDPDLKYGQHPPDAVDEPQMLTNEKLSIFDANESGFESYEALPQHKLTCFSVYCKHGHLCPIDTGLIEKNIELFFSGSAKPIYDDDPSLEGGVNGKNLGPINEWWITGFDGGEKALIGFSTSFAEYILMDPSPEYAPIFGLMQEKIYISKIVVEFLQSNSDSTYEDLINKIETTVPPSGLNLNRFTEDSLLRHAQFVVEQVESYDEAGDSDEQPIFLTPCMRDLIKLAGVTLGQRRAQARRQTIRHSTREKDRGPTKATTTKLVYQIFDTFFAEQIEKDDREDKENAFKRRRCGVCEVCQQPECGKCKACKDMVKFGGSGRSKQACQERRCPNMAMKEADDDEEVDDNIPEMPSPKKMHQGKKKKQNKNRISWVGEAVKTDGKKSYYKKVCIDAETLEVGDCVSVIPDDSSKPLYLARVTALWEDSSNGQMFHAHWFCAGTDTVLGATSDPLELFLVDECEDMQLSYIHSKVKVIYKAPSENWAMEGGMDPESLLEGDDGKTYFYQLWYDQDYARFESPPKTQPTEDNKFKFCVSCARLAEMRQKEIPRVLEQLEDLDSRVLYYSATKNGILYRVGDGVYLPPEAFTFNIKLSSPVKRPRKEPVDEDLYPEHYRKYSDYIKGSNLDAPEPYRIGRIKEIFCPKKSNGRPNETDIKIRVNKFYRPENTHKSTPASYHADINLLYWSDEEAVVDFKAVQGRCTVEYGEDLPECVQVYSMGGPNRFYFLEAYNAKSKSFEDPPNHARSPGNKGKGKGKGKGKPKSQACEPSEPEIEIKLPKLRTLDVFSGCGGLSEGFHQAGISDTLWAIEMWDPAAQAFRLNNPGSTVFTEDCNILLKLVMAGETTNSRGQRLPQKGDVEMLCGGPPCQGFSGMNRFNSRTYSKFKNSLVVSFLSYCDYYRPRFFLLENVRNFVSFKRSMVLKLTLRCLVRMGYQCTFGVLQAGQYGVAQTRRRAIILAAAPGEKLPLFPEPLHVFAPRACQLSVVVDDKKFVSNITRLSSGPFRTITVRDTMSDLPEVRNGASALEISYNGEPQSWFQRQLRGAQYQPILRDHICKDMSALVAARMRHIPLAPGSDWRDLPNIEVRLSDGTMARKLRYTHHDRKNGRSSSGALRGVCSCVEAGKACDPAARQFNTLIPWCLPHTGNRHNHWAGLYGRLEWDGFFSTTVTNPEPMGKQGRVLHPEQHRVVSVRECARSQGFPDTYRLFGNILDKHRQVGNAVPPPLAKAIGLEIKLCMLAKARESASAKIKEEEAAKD

For `Nc1ncn([C@H]2C[C@H](O)[C@@H](CO)O2)c(=O)n1` [decitabine, reference compound], the “Q Intercompartmental clearance” value [1, 16] is given as 23 L/h, the “Vc Central volume = V2” value [1, 16] is given as 32 L and the “Vp Peripheral volume = V3” value [1, 16] is given as 40 L. For the same compound, the “CL Clearance” value ([1]; human, reported in literature, used in human simulation) was 152 L/h, the half-life (in vivo [2]) was 0.4 h and the half-life (in vivo [3]) was 3.71 h. For the same compound, the half-life (in vivo [4]) was 1.19 h, the AUC(0-inf) ([5]; iv, 1 mg/kg) was 2370 ng·h/mL and the C0 ([5]; iv, 1 mg/kg) was 504 ng/mL. It also gave a Vd ([5]; iv, 1 mg/kg) of 2.16 L/kg, a clearance ([5]; iv, 1 mg/kg) of 7 mL/min/kg and an AUC(0-inf) ([6]; iv, 0.33 mg/kg) of 1080 ng·h/mL. The C0 ([6]; iv, 0.33 mg/kg) was 746 ng/mL, the Vd ([6]; iv, 0.33 mg/kg) was 0.476 L/kg and the clearance ([6]; iv, 0.33 mg/kg) was 5.17 mL/min/kg. It also gave an AUC(0-inf) ([7]; iv, 1 mg/kg) of 268 ng·h/mL, a C0 ([7]; iv, 1 mg/kg) of 579 ng/mL and a Vd ([7]; iv, 1 mg/kg) of 1.7 L/kg. For the same compound, the clearance ([7]; iv, 1 mg/kg) was 62.5 mL/min/kg.
With `Nc1ncn(C2CC(O)C(CO)S2)c(=O)n1` (stereo not drawn) [Aza-T-dCyd, 4′-Thio-5-aza-2′-deoxycytidine] the “change in the bone marrow” value (normal mouse; 2.5 mpk PO, one cycle) was “a significant change in the bone marrow started to be observed”, the “viability and composition of each cell in the bone marrow” value (normal mouse; up to 2.0 mpk PO, one cycle (5 days, 2-day break, 5 days, 9-day break)) was “no significant change in the viability and composition of each cell in the bone marrow” and the anticancer efficacy (Molm13 AML cells) was “excellent anticancer efficacy close to tumor regression”. For the same compound, the “maximum range of change of total area under curve (AUC)” value (Mouse PK (AUC); 2.0 mpk PO) was “approximately 25%”, the AUC (Mouse PK (AUC); oral, 0.07 mg/kg, 0.07 mpk) was 11.3 ng·h/mL and the AUC (Mouse PK (AUC); oral, 0.13 mg/kg, 0.13 mpk) was 19.3 ng·h/mL. It also gave an AUC (Mouse PK (AUC); oral, 0.27 mg/kg, 0.27 mpk) of 38.1 ng·h/mL, an AUC (Mouse PK (AUC); oral, 0.4 mg/kg, 0.4 mpk) of 55.4 ng·h/mL and an AUC (Mouse PK (AUC); oral, 0.8 mg/kg, 0.8 mpk) of 109 ng·h/mL. The AUC (Mouse PK (AUC); oral, 1 mg/kg, 1.0 mpk) was 136 ng·h/mL, the AUC (Mouse PK (AUC); oral, 1.4 mg/kg, 1.4 mpk) was 183 ng·h/mL and the AUC (Mouse PK (AUC); oral, 1.5 mg/kg, 1.5 mpk) was 203 ng·h/mL. The AUC (Mouse PK (AUC); oral, 2.5 mg/kg, 2.5 mpk) was 336 ng·h/mL, the AUC (Mouse PK (AUC); oral, 2.6 mg/kg, 2.6 mpk) was 355 ng·h/mL and the AUC (Mouse PK (AUC); oral, 3 mg/kg, 3.0 mpk) was 403 ng·h/mL. For the same compound, the AUC (Mouse PK (AUC); oral, 10 mg/kg, 10 mpk) was 1340 ng·h/mL, the AUC (Mouse PK (AUC); po, 2 mg/kg, 2.0 mpk) was 270 ng·h/mL and the “F_human (equation result)” value ([8]; From Dog) was 66.28. The “F_human (equation result)” value ([8]; From Mouse) was 65.16, the “F_human (equation result)” value ([8]; From Rat) was 59.26 and the “human Ka” value ([8]; estimated assuming Tmax in a human is 1 hour, value set) was 2.8 h⁻¹. For the same compound, the “human F calculated by literature equation” value (“human F calculated” for short) ([8]; from dog) was ~0.66, the “human F calculated” value ([8]; from mouse) was “about 0.65” and the “human F calculated” value ([8]; from rat) was ~0.59. The “CL Clearance, Predicted Value” ([8]; predicted for a 70 kg human) was 8.95 L/h, the “F Absolute bioavailability, Predicted Value” ([8]; predicted for a 70 kg human) was 0.6 and the “Ka The first-order absorption rate constant, Predicted Value” ([8]; predicted for a 70 kg human) was 2.8 h⁻¹. The “Q Intercompartmental clearance, Predicted Value” ([8]; predicted for a 70 kg human) was 250.52 L/h, the “Vc Central volume = V2, Predicted Value” ([8]; predicted for a 70 kg human) was 29.50 L and the “Vp Peripheral volume = V3, Predicted Value” ([8]; predicted for a 70 kg human) was 12.92 L. The “human F (set value)” value ([8]; set in consideration of the results) was 0.6, the “average absorption rate constant (Ka)” value ([9]; average from three species) was “approximately 2.63 h^−1” and the bioavailability ([9]; mouse, rat, dog, in vivo, average from three species, read-out: average bioavailability (F)) was ~54%. For the same compound, the Tmax ([9]; mouse, rat, dog, in vivo, range of the three species) was 0.25 to 2 h, the “F Absolute bioavailability” value [10] was 0.6 and the “Ka The first-order absorption rate constant” value [10] was 2.8 h⁻¹. For the same compound, the “anti-cancer effects (tumor volume)” value (MV4-11 AML cells [11]) was “very excellent anti-cancer effects”, the anticancer effect [12] was “significant anticancer effect” and the toxicity [13] was “so severe that therapeutic efficacy was not observed”. The “DNMT removal and inhibitory activities in cells” value (DNMT1) was “high DNMT removal and inhibitory activities in cells”, the “rate of degradation by cytidine deaminase” value (cytidine deaminase) was “reduced rate of degradation by cytidine deaminase” and the bioavailability [5] was 43.2%. It also gave an AUC(0-inf) ([5]; iv, 1 mg/kg) of 1900 ng·h/mL, a C0 ([5]; iv, 1 mg/kg) of 562 ng/mL and a Vd ([5]; iv, 1 mg/kg) of 3.53 L/kg. The clearance ([5]; iv, 1 mg/kg) was 8.83 mL/min/kg, the half-life ([5]; iv, 1 mg/kg) was 5.01 h and the bioavailability [6] was 68.7%. It also gave an AUC(0-inf) ([6]; iv, 0.33 mg/kg) of 1130 ng·h/mL, a C0 ([6]; iv, 0.33 mg/kg) of 586 ng/mL and a Vd ([6]; iv, 0.33 mg/kg) of 0.81 L/kg. The clearance ([6]; iv, 0.33 mg/kg) was 5 mL/min/kg, the half-life ([6]; iv, 0.33 mg/kg) was 2.25 h and the bioavailability [7] was 50.6%. It also gave an AUC(0-inf) ([7]; iv, 1 mg/kg) of 406 ng·h/mL, a C0 ([7]; iv, 1 mg/kg) of 616 ng/mL and a Vd ([7]; iv, 1 mg/kg) of 1.9 L/kg. The clearance ([7]; iv, 1 mg/kg) was 42.3 mL/min/kg, the half-life ([7]; iv, 1 mg/kg) was 0.6 h and the “blood analysis: major parameters (WBC, neutrophil, platelet, RBC levels)” value (MV4-11 AML cells [14]) was “no change in major parameters”. The “therapeutic efficacy against MDS/AML” value (MV4-11 AML cells [15]; 1.4 to 2.6 mpk based on a mouse) was “excellent therapeutic efficacy against MDS/AML”, the efficacy (MV4-11 AML cells [15]; 1.5 mpk PO, three cycles) was “an efficacy which did not reach that of the PO administration of 2.0 to 2.5 mpk of Aza-T-dCyd” and the “clinical observations including body weight” value (MV4-11 AML cells [15]; 2.0 mpk PO, one cycle) was “stay in the normal range”. The “clinical observations including mouse body weight” value (MV4-11 AML cells [15]; 2.0 mpk PO, three cycles) was “remained in the normal range”, the survival improvement (MV4-11 AML cells [15]; 2.0 mpk PO, three cycles) was “very excellent survival improvement” and the death of subjects (MV4-11 AML cells [15]; 2.5 mpk PO, three cycles) was “led to the death of some subjects”. For the same compound, the survival improvement (MV4-11 AML cells [15]; one cycle, Aza-T-dCyd 2.0 mpk PO, decitabine and azacytidine at optimal doses as controls) was “very excellent survival improvement”.
In the case of `Nc1ncn([C@@H]2O[C@H](CO)[C@@H](O)[C@H]2O)c(=O)n1` [azacytidine, reference compound], the “blood analysis: major parameters (WBC, neutrophil, platelet, RBC levels)” value (MV4-11 AML cells [14]) is reported as “severe neutropenia”.
